According to patent US10787485B2, “Peptide for coating surfaces” (Universität Leipzig, priority 2015, dated 2020):
“Also recorded” adds a separate entry of the source.

Columns and labels:
[1] = Biotin ELISA, binding of biotinylated peptides to etched titanium slices; settings: for pEC50 binding affinity to titanium / EC50: biotinylated peptides, etched titanium slices, 2 hrs at RT in TBS; for EC50: read-out: EC50 binding affinity to titanium; for beginning of saturation phase of binding to titanium: concentration effect curve of the biotin ELISA
Method: Following synthesis of the mussel peptide by solid phase peptide synthesis (Fmoc/tBu strategy) the binding affinity to titanium was studied.
(§1) For that, titanium slices were etched in order to obtain a freshly oxidized surface. Subsequently, the titanium slices were incubated with various peptide concentrations. Following intensive washing steps titanium-bound peptide was identified with the well-described biotin-streptavidin interaction. […] Moreover, stability of the DOPA peptides was tested in cell supernatant to imitate in vitro conditions. For that, titanium slices were coated with the corresponding biotinylated peptides (concentration=1 μM). Following incubation in SaOS-2 cell supernatant at 37° C. remaining peptide was identified by means of the biotin ELISA. Within a period of 7 days constantly more than 50% of immobilized and biotinylated peptide were detected (FIG. 2C).
Titanium foil (Sigma Aldrich, thickness: 0.127 mm) was cut to round pieces (area=0.43 cm^2) and etched in H2SO4 (30%)/H2O2 (1:1 v/v) for 7 min. Following washing steps with water and TBS buffer (50 mM tris(hydroxymethyl)-aminomethane (Tris), 150 mM NaCl, pH 7.6) the titanium slices were incubated with various concentrations of biotinylated peptides in TBS buffer dissolved for 2 hrs. at RT. Subsequently, the coated slices were washed 5 times with TBS-T buffer (50 mM Tris, 150 mM NaCl, 0.1% Tween 20, pH 7.6) and transferred to new reaction vessels. The following biotin ELISA was performed in accordance with Hassert et al.^3 Zero reading values were obtained with uncoated titanium slices and subtracted from the generated values (absorption per cm^2). The obtained data points were non-linearly fitted with GraphPad Prism 5 software (GraphPadInc.). Error bars are represented as standard error of the mean (SEM) from at least 2 independent experiments.

SaOS-2 cells [2] = test: Cell adhesion assay on peptide-coated titanium (fluorescence microscopy); format: cell-based; settings: 6 h adhesion, serum-free medium; for average cell plane (cell propagation, cell size) / cell morphology / actin cytoskeleton: 1 μM peptide coating; for cell number of adhered cells: normalized to uncoated Ti
Method: (§2) To determine the bioactivity of the ligated peptides and their controls cell adhesion studies have been performed. Osteoblast-like cells (SaOS-2) have been sown on etched peptide-coated titanium. All cellular experiments were performed in serum-free medium to prevent false results by adsorption of serum proteins. To study initial cell adhesion the cells were fixed and dyed after 6 h of cultivation to observe morphology and average cell plane and number by means of fluorescence microscopy. […] Indeed, an increase in cell size was observed, slightly higher than on uncoated titanium slices. […] Cells having a fibroblast-like morphology and distinct bundles of fibrils have been found on all RGD-containing peptide coatings. […] In addition to the average cell plane the cell number was determined by counting cells that adhered after 6 h. […] Moreover, a similar tendency as already in the cell plane experiment could be observed. […] It is known that RGD peptides mediate the formation of focal contacts that are decisive for the outer-inner communication between cell and ECM.^6 By immuno-labeling with an anti-vinculin antibody it is possible to visualize vinculin, a protein involved in building up focal adhesion.
Titanium foil was stamped and etched as already described. Following washing steps with water and PBS buffer (Dulbeccos phosphate) the titanium slices were sterilized with 70% ethanol/water (v/v) in an ultrasonic bath for 15 min. After having washed twice with PBS buffer the titanium slices were incubated overnight in a 48-well plate at RT with 300 μL of 1 μM of a peptide solution in PBS, PBS (negative control), and fibronectin in PBS (25 μg/mL, positive control).
Coated titanium slices (48-well plate) were washed twice with PBS. SaOS-2 cells were re-suspended in medium without FCS. Thereafter, the cells were sown on the coated titanium slices (50,000-90,000 cells per well, in this range we didn't find any influence on the cell plane for respective coating). Following adhesion for 6 hrs. the slices were washed with PBS and the cells were fixed with 4% paraformaldehyde in PBS for 30 min. Subsequently, the adhered cells were washed and permeabilized with 1% Triton X-100 in PBS for 1 min. Thereafter, the cells were dyed with phalloidin-tetramethylrhodamine isothiocyanate (phalloidin-TRITC) and HOECHST 33342 (both Sigma Aldrich). For fluorescence microscopy (Axio Observer microscope, Zeiss) the slices were attached to slides. For each slice (triplicate) 3 representative images at 20 fold and 10 fold magnification were made. Then, the average cell plane was determined by edging (Software Axio Vision 4.8, Zeiss) each single cell on one representative image (20 fold) each of each triplicate. The determined values were summarized from 3 independent experiments and represented as mean±SEM. To determine the cell number, three 10 fold magnified images were evaluated by means of ImageJ software and normalized to titanium=1, n≥3.

SaOS-2 cells [3] = test: Immunolabelling of focal contacts (vinculin) on peptide coatings; format: cell-based; settings: 24 hrs adhesion, anti-vinculin antibody
Method: as §2
Cells (40,000 per well) were sown onto coated and washed titanium slices as already described. After 1 d of cell adhesion the slices were washed twice with PBS. All of the following washing steps were performed with 0.05% (v/v) Tween-20 in PBS. Thereafter, the cells were fixed and permeabilized as already described. To block unspecific interactions the slices were incubated with 1% bovine serum albumin (BSA) in PBS for 40 min. Subsequently, the cells were incubated with a murine monoclonal antibody against vinculin (Millipore, staining kit, 1:200) for 1 hr. at RT. Thereafter, the cells were washed and labeled with phalloidin-TRITC and a fluoresceinisothiocyanate (FITC) conjugated goat anti-mouse antibody (Millipore, 1:100) in 1% (v/v) BSA in PBS for 2 hr. Following a further washing step the nucleus was dyed with 4′,6-diamidino-2-phenylindol (DAPI, Millipore) in PBS for 15 min. Before the slices were attached to slides they were washed three times for 10 min. each. Fluorescence microscopy was performed on an Axio Observer microscope and an ApoTome Imaging System (Zeiss).

SaOS-2 cells [4] = test: Viability assay (resazurin) on coated titanium; format: cell-based; settings: after 3 days of adhesion
Method: (§3) In addition to initial cell adhesion after 6 h cell viability and proliferation after 3 d was studied. Incorporation of the bromine-labeled thymidine analogue bromodeoxyuridine (BrdU) within 24 h, after 2 d of cell adhesion, was used to determine proliferation of cells on coated titanium. No significant changes could be found between the immobilized peptides and controls (FIG. 5C). However, a peptide coating is advantageous compared to untreated titanium. […] Cell viability was studied after 3 days of adhesion by reacting resazurin to resorufin by living cells. […] This fact emphasizes the cell repellent, but at the same time not toxic properties of the PEG. […] Thus, the advantageous approach to present both cell binding peptides in one molecule is confirmed.
Cells were sown onto coated and washed titanium slices in FCS-free medium in a 96-well plate. After one day the medium was replaced by FCS-containing medium. On day 3 20 μL of CellTiderBlue® (Promega) were added to each well. After 2 hrs. of incubation the reaction of resazurin to resorufin was determined by means of fluorescence intensity measurement at 560Ex/590Em nm. The measured values (mean±SEM) were evaluated from 4 independent experiments performed in triplicate.

[5] = Stability test by biotin ELISA of peptides immobilized on titanium, in SaOS-2 cell supernatant; format: in vitro ADME; settings: titanium coated at 1 μM, 37° C.
Method: as §1
Titanium slices were etched as described and incubated overnight with 1 μM of peptide solutions in TBS buffer at RT. Subsequently, the coated slices were washed 5 times with TBS-T buffer and transferred to new reaction vessels. Thereafter, the titanium slices were incubated with cell supernatant (of SaOS-2 cells after 2 days of cell cultivation) at 37° C. for certain times. To detect […], biotinylated peptide on the surface the titanium slices were washed 4 times with TBS-T and once with TBS and the biotin ELISA was performed as described. Zero reading values were obtained by uncoated titanium slices and subtracted from the generated data. The obtained measuring values were normalized to the value measured at 0 min. Error bars are represented as standard error of the mean (SEM) from at least 2 independent experiments (double determination).

SaOS-2 cells [6] = test: Proliferation assay (BrdU) on coated titanium; format: cell-based; settings: 24 h incorporation after 2 d of cell adhesion, normalized to uncoated titanium
Method: as §3
Cells were sown onto coated and washed titanium slices in FCS-free medium in a 96-well plate. After one day the medium was replaced by FCS-containing medium. On day 2 bromodeoxyuridine (BrdU) was added to each well for labelling (colorimetric Cell Proliferation kit, Roche). After 24 hrs. of incorporation of the label the cells were washed and fixed. […] Binding of the antibody was detected with the addition of a 3,3′,5,5′-tetramethylbenzidine (TMB) solution and H2O2(Calbiochem). […] The measured values (mean±SEM) were evaluated from 4 independent experiments performed in triplicates and normalized to uncoated titanium.

## P*-T-Y-K-NH2 [bio-(−) mefp-1]
[1]
  pEC50 binding affinity to titanium: 4.6±0.1
  EC50: > 10000 nM

## C-Peg-Y*-K(c[RGDfK])-Y*-Peg-G*-βA-NH2 [MP-RGD]
SaOS-2 cells [2]
  average cell plane (cell propagation, cell size): average cell size comparable to the naturally occurring ECM protein fibronectin
SaOS-2 cells [3]
  formation of focal adhesion contacts (vinculin): line-like adhesion contacts (green) were formed

## c[RGDfK(dienophile)]
SaOS-2 cells [2]
  cell number of adhered cells: increased to a greater extent than on HBP

## C-Peg-Y*-K-Y*-Peg-G*-βA-NH2 [MP]
SaOS-2 cells [2]
  average cell plane (cell propagation, cell size): smallest cell propagation
  cell morphology / actin cytoskeleton: rather round shape with slightly formed cytoskeleton
  cell number of adhered cells: smallest cell number
SaOS-2 cells [4]
  cell viability (resazurin to resorufin): more living cells could be analyzed on this coating than on titanium
[5]
  stability on titanium, comparison of peptides: tendency to a higher stability
[1]
  pEC50 binding affinity to titanium: 7.6±0.1
  EC50: 23.6 nM
  beginning of saturation phase of binding to titanium: sub-μM range
SaOS-2 cells [3]
  formation of focal adhesion contacts (vinculin): a few or no focal adhesion contacts

## Bio-X-X-C-Peg-Y*-K-Y*-Peg-G*-βA-NH2 [bio-MP]
[5]
  stability on titanium, comparison of peptides: no significant differences

## Bio-X-X-A-K-P*-S-Y*-P*-P*-T-Y*-K-NH2 [mefp-1]
[5]
  stability on titanium, comparison of peptides: no significant differences
[1]
  pEC50 binding affinity to titanium: 8.2±0.1
  EC50: 6.4 nM
  beginning of saturation phase of binding to titanium: sub-μM range

## C-Peg-Y*-K(c[RGDfK])-Y*-Peg-G*(K(N3)-FHRRIKA-NH2)-βA-NH2 [MP-RGD-HBP]
SaOS-2 cells [2]
  average cell plane (cell propagation, cell size): highest average cell plane
  cell morphology / actin cytoskeleton: distinctive, parallel actin filaments have formed
SaOS-2 cells [6]
  cell proliferation (BrdU incorporation): slightly increased cell proliferation
SaOS-2 cells [4]
  cell viability (resazurin to resorufin): best result among all synthesized peptides
SaOS-2 cells [3]
  formation of focal adhesion contacts (vinculin): line-like adhesion contacts (green) were formed; also recorded: slight increase in focal complexes

## C-Peg-Y*-K-Y*-Peg-G*(K(N3)-FHRRIKA-NH2)-βA-NH2 [MP-HBP]
SaOS-2 cells [2]
  average cell plane (cell propagation, cell size): increase of cell propagation compared with MP and uncoated titanium
  cell morphology / actin cytoskeleton: only formed a few actin filaments and adhered in irregular cell shapes
SaOS-2 cells [3]
  formation of focal adhesion contacts (vinculin): a few or no focal adhesion contacts
